Laboratory results reported in patent US9902711B2, “Piperidine compounds having multimodal activity against pain” (LABORATORIOS DEL DR. ESTEVE S.A., priority 2013, dated 2018).

Test system: human σ1 receptor and human μ-opioid receptor
Test: Human σ1 receptor radioligand assay and human μ-opioid receptor radioligand assay (results reported only as combined μ and σ1 dual binding)
Set-up: key to μ and σ1 dual binding: +: Both Ki-μ and Ki-σ1>=500 nM; ++: One Ki<500 nM while the other Ki is >=500 nM; +++: Both Ki-μ and Ki-σ1<500 nM; ++++: Both Ki-μ and Ki-σ1<100 nM
Conditions: Ki at human σ1 receptor (HEK-293 membranes, [3H](+)-pentazocine) and human μ-opioid receptor (CHO-K1 membranes, [3H]-DAMGO), one combined class
Experimental: To investigate binding properties of σ1 receptor ligands to human σ1 receptor, transfected HEK-293 membranes and [^3H](+)-pentazocine (Perkin Elmer, NET-1056), as the radioligand, were used. The assay was carried out with 7 μg of membrane suspension, 5 nM of [^3H](+)-pentazocine in either absence or presence of either buffer or 10 μM Haloperidol for total and non-specific binding, respectively. Binding buffer contained Tris-HCl 50 mM at pH 8. Plates were incubated at 37° C. for 120 minutes. After the incubation period, the reaction mix was then transferred to MultiScreen HTS, FC plates (Millipore), filtered and plates were washed 3 times with ice-cold 10 mM Tris-HCL (pH7.4). Filters were dried and counted at approximately 40% efficiency in a MicroBeta scintillation counter (Perkin-Elmer) using EcoScint liquid scintillation cocktail
To investigate binding properties of μ-opioid receptor ligands to human μ-opioid receptor, transfected CHO-K1 cell membranes and [^3H]-DAMGO (Perkin Elmer, ES-542-C), as the radioligand, were used. The assay was carried out with 20 μg of membrane suspension, 1 nM of [^3H]-DAMGO in either absence or presence of either buffer or 10 μM Naloxone for total and non-specific binding, respectively. Binding buffer contained Tris-HCl 50 mM, MgCl2 5 mM at pH 7.4. Plates were incubated at 27° C. for 60 minutes. After the incubation period, the reaction mix was then transferred to MultiScreen HTS, FC plates (Millipore), filtered and plates were washed 3 times with ice-cold 10 mM Tris-HCL (pH 7.4). Filters were dried and counted at approximately 40% efficiency in a MicroBeta scintillation counter (Perkin-Elmer) using EcoScint liquid scintillation cocktail.

SMILES	μ and σ1 dual binding	Ki
COc1cccc(C2CCN(Cc3cn(C(CO)c4ccccc4)nn3)CC2)c1 (centres unmarked) [Example 17, 2-(4-((4-(3-methoxyphenyl)piperidin-1-yl)methyl)-1H-1,2,3-triazol-1-yl)-2-phenylethanol]	++	–
COCCOc1cccc(C2CCN(Cc3cn(-c4ccccc4)nn3)CC2)c1 [Example 10, 4-(3-(2-methoxyethoxy)phenyl)-1-((1-phenyl-1H-1,2,3-triazol-4-yl)methyl)piperidine]	–	< 500 nM
CN(C)C(=O)Oc1cccc(C2CCN(Cc3cn(-c4ccccc4)nn3)CC2)c1 [Example 8, 3-(1-((1-phenyl-1H-1,2,3-triazol-4-yl)methyl)piperidin-4-yl)phenyl dimethylcarbamate]	–	< 500 nM
CC(=O)Oc1cccc(C2CCN(Cc3cn(-c4ccccc4)nn3)CC2)c1 [Example 9, 3-(1-((1-phenyl-1H-1,2,3-triazol-4-yl)methyl)piperidin-4-yl)phenyl acetate]	–	< 100 nM
CC(C)[C@H](N)C(=O)Oc1cccc(C2CCN(Cc3cn(Cc4ccccn4)nn3)CC2)c1 [Example 6, (S)-3-(1-((1-(pyridin-2-ylmethyl)-1H-1,2,3-triazol-4-yl)methyl)piperidin-4-yl)phenyl 2-amino-3-methylbutanoate]	–	< 500 nM
COc1cccc(C2CCN(Cc3cn(-c4ccccc4)nn3)CC2)c1 [Example 7, 4-(3-methoxyphenyl)-1-((1-phenyl-1H-1,2,3-triazol-4-yl)methyl)piperidine]	–	< 500 nM
COc1cccc(C2CCN(Cc3cn(-c4ccc(F)cc4)nn3)CC2)c1 [Example 2, 1-((1-(4-fluorophenyl)-1H-1,2,3-triazol-4-yl)methyl)-4-(3-methoxyphenyl)piperidine]	++	–
CC(C)[C@H](NC(=O)Oc1cccc(C2CCN(Cc3cn(Cc4ccccn4)nn3)CC2)c1)C(=O)O [Example 13]	–	≥ 500 nM
CCNC(=O)Oc1cccc(C2CCN(Cc3cn(-c4ccccc4)nn3)CC2)c1 [Example 1, 3-(1-((1-phenyl-1H-1,2,3-triazol-4-yl)methyl)piperidin-4-yl)phenyl ethylcarbamate]	–	< 500 nM
O=C(Oc1cccc(C2CCN(Cc3cn(Cc4ccccn4)nn3)CC2)c1)[C@@H]1CCCN1 [Example 18, (S)-3-(1-((1-(pyridin-2-ylmethyl)-1H-1,2,3-triazol-4-yl)methyl)piperidin-4-yl)phenyl pyrrolidine-2-carboxylate]	–	< 500 nM
O=C(O)CNC(=O)Oc1cccc(C2CCN(Cc3cn(Cc4ccccn4)nn3)CC2)c1 [Example 14]	–	≥ 500 nM
CC(=O)Oc1cccc(C2CCN(Cc3cn(Cc4ccccn4)nn3)CC2)c1 [Example 3, 3-(1-((1-(pyridin-2-ylmethyl)-1H-1,2,3-triazol-4-yl)methyl)piperidin-4-yl)phenyl acetate]	++	–
NC1(C(=O)Oc2cccc(C3CCN(Cc4cn(Cc5ccccn5)nn4)CC3)c2)CCCCC1 [Example 20, 3-(1-((1-(pyridin-2-ylmethyl)-1H-1,2,3-triazol-4-yl)methyl)piperidin-4-yl)phenyl 1-aminocyclohexanecarboxylate]	–	≥ 500 nM
COc1cccc(C2CCN(Cc3cn(Cc4ccccn4)nn3)CC2)c1 [Example 12, 2-((4-((4-(3-methoxyphenyl)piperidin-1-yl)methyl)-1H-1,2,3-triazol-1-yl)methyl)pyridine]	++	–
COCCCOc1cccc(C2CCN(Cc3cn(-c4ccccc4)nn3)CC2)c1 [Example 11, 4-(3-(3-methoxypropoxy)phenyl)-1-((1-phenyl-1H-1,2,3-triazol-4-yl)methyl)piperidine]	–	< 500 nM
N[C@@H](Cc1ccccc1)C(=O)Oc1cccc(C2CCN(Cc3cn(Cc4ccccn4)nn3)CC2)c1 [Example 19, (S)-3-(1-((1-(pyridin-2-ylmethyl)-1H-1,2,3-triazol-4-yl)methyl)piperidin-4-yl)phenyl 2-amino-3-phenylpropanoate]	–	< 500 nM
COc1cccc(C2CCN(Cc3cn(Cc4ncccc4F)nn3)CC2)c1 [Example 15, 3-fluoro-2-((4-((4-(3-methoxyphenyl)piperidin-1-yl)methyl)-1H-1,2,3-triazol-1-yl)methyl)pyridine]	++	–
O=C(Nc1ccc(C(=O)O)cc1)Oc1cccc(C2CCN(Cc3cn(Cc4ccccn4)nn3)CC2)c1 [Example 4]	–	< 500 nM
CC(C)C(=O)Oc1cccc(C2CCN(Cc3cn(Cc4ccccn4)nn3)CC2)c1 [Example 5, 3-(1-((1-(pyridin-2-ylmethyl)-1H-1,2,3-triazol-4-yl)methyl)piperidin-4-yl)phenyl isobutyrate]	–	< 500 nM
COc1cccc(C2CCN(Cc3cn(Cc4ccc(F)cn4)nn3)CC2)c1 [Example 16, 5-fluoro-2-((4-((4-(3-methoxyphenyl)piperidin-1-yl)methyl)-1H-1,2,3-triazol-1-yl)methyl)pyridine]	++	–
